This is an account of results in patent US6916805B2, “Quinoxalinones as serine protease inhibitors” (Warner-Lambert Company LLC, priority 1998, dated 2005).

Assay [1] addresses T1, human thrombin (Homo sapiens, UniProt P00734).
T1 construct: purchased Enzyme Research Laboratories
Nature of the assay: Thrombin IC50, cleavage of Chromozym TH. It counts as biochemical. The protocol:
The ability of compounds to act as inhibitors of human thrombin catalytic activity is assessed by determination of that concentration of test substance that inhibits by 50% (IC50) the ability of human thrombin to cleave the chromogenic substrate Chromozym TH (Tosyl-Gly-Pro-Arg-pNA*Ac, Boehringer Mannheim). Typically, 145 μL human thrombin (0.75 nM, Enzyme Research Laboratories) in a HPB buffer (10 mM HEPES, 100 mM NaCl, 0.05% BSA, 0.1% PEG-8000, pH 7.4) and 5 μL of test substance in DMSO (2% final) are incubated for 60 minutes at room temperature. Following preheating to 37° C. for 5 minutes, to this mixture is added 100 μL of Chromozym TH in HPB buffer. The velocity of Chromozym TH hydrolysis is determined at 37° C. by measuring the initial rate of change of the optical density at OD405 nm every 10 seconds for 5 minutes using a ThermoMax® Kinetic Microplate Reader.

For assay [2], the system named is dog electrolytic injury model of thrombosis. Nature of the assay: Dog electrolytic injury model of thrombosis. It counts as in vivo. The source says:
The effects of Example 2 on thrombosis and hemostasis has been studied in a dog electrolytic injury model of thrombosis. In this model, the thrombosis influencing event is an electrical current is applied to the femoral vein (or artery) by applying an anodal direct current (300 uA) to the intimal surface of the vessel in the presence of restricted blood flow (Goldblatt clamps placed around the vessel). The end points of the experiment are the time to occlusion (TTO) and thrombus weight. […] In the highest dose group, TTO was increased to near maximal effect of 240 minutes in both arteries and veins. The net thrombus weight was reduced from 50 mg to 18 mg [artery] and 110 mg to 15 mg [vein] in the highest dose group. Example 2, at the highest dose, prolonged aPTT, PT, by 1.4-, and 1.75-fold, respectively.

Assay [3] concerns human trypsin. Nature of the assay: Trypsin IC50, cleavage of S2222. It counts as biochemical. How it is done: The ability of compounds to act as inhibitors of human trypsin catalytic activity is assessed by determination of that concentration of test substance that inhibits by 50% (IC50) the ability of human trypsin to cleave the chromogenic substrate S2222 (N-Bz-L-Ile-L-Glu-L-Gly-L-Arg-p-nitroanilide. HCl, DiaPharma). Typically, 145 μL human trypsin (0.5 nM final) in 10 mM HEPES, 150 mM NaCl, 0.1% BSA, and 5 μL of the test substance in DMSO (2% final) are incubated for 60 minutes at room temperature. Following preheating to 37° C. for 5 minutes, to this mixture is added 100 μL of S2222 in HBSA buffer (100 μM final), and the velocity of S2222 hydrolysis is determined at 37° C. by measuring the optical density at OD405 nm every 10 seconds over 5 minutes using a ThermoMax® Kinetic Microplate Reader.

Assay [4] has as its target T2, human factor Xa (Homo sapiens, UniProt P00742).
T2 construct: 145 μL human factor Xa (1 nM final, Enzyme Research Laboratories); purchased Enzyme Research Laboratories
Nature of the assay: Factor Xa IC50, cleavage of chromogenic substrate S2765. It counts as biochemical. How it is done:
The ability of compounds to act as inhibitors of human factor Xa catalytic activity is assessed by determination of that concentration of test substance that inhibits by 50% (IC50) the ability of human factor Xa to cleave the chromogenic substrate S2765 (N-CBz-D-Arg-L-Gly-L-Arg-p-nitroanilide. 2HCl, DiaPharma). Typically, 145 μL human factor Xa (1 nM final, Enzyme Research Laboratories) in 10 mM HEPES, 150 mM NaCl, 0.1% BSA, pH 7.4 (HBSA buffer), and 5 μL of test substance in DMSO (2% final) are incubated for 60 minutes at room temperature. Following preheating to 37° C. for 5 minutes, to this mixture is added 100 μL of S2765 in HBSA buffer. The velocity of S2765 hydrolysis is determined at 37° C. by measuring the initial rate of change of the optical density at OD405 nm every 10 seconds for 5 minutes using a ThermoMax® Kinetic Microplate Reader.

Assay [5] concerns rabbit veno-venous shunt model of thrombosis. The assay is described as follows: Rabbit veno-venous shunt model of thrombosis. It counts as in vivo. How it is done:
The effects of Example 2 on thrombosis and hemostasis has been studied in a rabbit veno-venous shunt model of thrombosis. In that model, a plastic shunt which contains cotton thread was inserted into abdominal vena cava and thrombus developed inside the shunt under control conditions. The end points of the experiment are the time to occlusion (TTO) and thrombus weight. Example 2 was given to the rabbit via jugular vein as a single bolus followed by constant infusion for 140 minutes. Three doses have been tested in a total of 15 rabbits (5 rabbits in each group): 30 μg/kg+1 μg/kg/min, 60 μg/kg+2 μg/kg/min, and 480 μg/kg+16 μg/kg/min. […] In the highest dose group, TTO was increased from 17 minutes under control condition to 100 minutes. The net thrombus weight was reduced from 50 to 20 mg in that group. Example 2, at the highest dose, prolonged aPTT, PT, by 5-, and 3.9-fold, respectively.

In assay [6] the target is T3, human prothrombinase (PTase) complex (Homo sapiens, UniProt P00742).
T3 construct: 2.5 pM human factor Xa (Enzyme Research Laboratories); purchased Enzyme Research Laboratories
The assay is described as follows: In vitro assay for human prothrombinase. It counts as biochemical. The note with it: PTase activity expressed by thrombin activity. How it is done: For determination of IC50 (PTase) of the compounds of the invention, PTase activity was expressed by thrombin activity.
PTase reaction was performed in 100 μL of mixture containing PTase (20 μM) PCPS (Avanti Polar Lipids following a procedure modified from Barenholz et al., Biochemistry, 1977;16:2806-2810) in a 30:70 ratio, 2.5 nM human factor Va (Enzyme Research Laboratories), and 2.5 pM human factor Xa (Enzyme Research Laboratories) in modified HEPES buffer (10 mM Hepes, 150 mM NaCl, 0.1% PEG-8000, 0.05% BSA, 2.5 mM CaCl2, pH 7.4), 3 μM human prothrombin (Enzyme Research Laboratories) and varied concentrations of the test compounds (1 nM to 100 μM in DMSO, 2% final). Reaction was started by co-incubating PTase with test compound for 60 minutes at room temperature, followed by addition of prothrombin for 6 minutes at room temperature. Next, the reaction was quenched by the addition of 100 μL of 20 mM EDTA. Activity of the thrombin (product) is then measured in the presence of 50 μL S2238 (250 μM final, H-D-Phe-Pip-Arg-pNA*Ac, DiaPharma) as substrate by measuring the change at 37° C. in OD405 nm for 5 minutes at 10 second intervals using a ThermoMax® Kinetic Microplate Reader.

Assay [7] deals with pooled plasma from human volunteers. Nature of the assay: In vitro diluted prothrombin time (dPT) assay. It counts as biochemical. How it is done: Rat, rabbit, dog, and human blood (typically 1.8 mL) was collected and added to a sodium citrate solution (3.8%) to afford a 1:10 dilution. After centrifugation (2000 g for 10 minutes), the blood plasma was stored at −70° C. to 0° C. Conventional prothrombin time (PT) tests were carried out in the presence of various concentrations of test compound and the concentration of test compound required to double the clotting time determined. Typically, the test compound (50 μL volume of varying concentrations 0.1 μM to 1000 μM) and blood plasma (100 μL volume) were incubated at 37° C. for 10 minutes, and then tissue thromboplastin, typically Neoplastine from American Bioproducts, with calcium was added. Fibrin formation and the time required for a clot to form were determined using an automated ST4 Clot Detection System in duplicate.
The effects of Example 2 on dPT were evaluated using pooled plasma from human volunteers.

For assay [8], the target named is T4, human tissue factor/factor VIIa complex (Homo sapiens, UniProt P08709).
T4 construct: 50 μL human factor VIIa (Enzyme Research Laboratories); purchased Enzyme Research Laboratories (factor VIIa); American Diagnostica (recombinant tissue factor)
The assay is described as follows: Tissue factor/factor VIIa inhibition, cleavage of Spectrozyme VIIa. It counts as biochemical. The note with it: read-out: VIIa % inhib. @ 100 μM. The protocol:
The ability of compounds to act as inhibitors of the catalytic activity of human tissue factor/factor VIIa complex is assessed by determination of that concentration of test substance that inhibits by 50% (IC50 the ability of a complex of human recombinant tissue factor/factor VIIa to cleave the chromogenic substrate Spectrozyme VIIa (CH3SO2-D-CHA-Arg-pNA*AcOH, American Diagnostica). Typically, 50 μL human factor VIIa (Enzyme Research Laboratories) is incubated for 10 minutes as a 1:1 mixture (5 nM final each) with 95 μL recombinant human tissue factor (American Diagnostica) in a modified HBSA buffer (10 mM Hepes, 5 mM CaCl2, 0.1% BSA, pH 8.0). Then, 5 μL of the test substance in DMSO (2% final) is added and incubated for 60 minutes at room temperature. Following preheating to 37° C. for 5 minutes, to this mixture is added 100 μL of Spectrozyme VIIa (500 μM final) in modified HBSA, and the velocity of Spectrozyme VIIa hydrolysis is determined at 37° C. by measuring the optical density at an OD405 nm every 10 seconds over 5 minutes using a ThermoMax® Kinetic Microplate Reader.

Setting [9] is: infusion 2.5, 5 and 10 μg/kg/min.
Where [10] appears, read: three doses, bolus + infusion 140 minutes.

The structures appear in SMILES notation.

T2 sequence (P00742 235-488 limits assumed): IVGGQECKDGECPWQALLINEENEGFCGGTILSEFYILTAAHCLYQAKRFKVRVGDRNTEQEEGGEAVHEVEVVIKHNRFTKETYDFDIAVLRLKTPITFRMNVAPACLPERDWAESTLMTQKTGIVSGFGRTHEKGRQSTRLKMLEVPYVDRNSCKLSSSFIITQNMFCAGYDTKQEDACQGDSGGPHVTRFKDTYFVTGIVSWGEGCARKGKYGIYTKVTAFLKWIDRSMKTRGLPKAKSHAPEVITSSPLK
T2 sequence (P00742 41-179 limits assumed): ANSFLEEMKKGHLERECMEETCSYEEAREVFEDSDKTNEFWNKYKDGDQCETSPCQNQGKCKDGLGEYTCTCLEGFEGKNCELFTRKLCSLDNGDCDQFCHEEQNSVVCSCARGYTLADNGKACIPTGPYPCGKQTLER
T4 sequence (P08709 213-466 limits assumed): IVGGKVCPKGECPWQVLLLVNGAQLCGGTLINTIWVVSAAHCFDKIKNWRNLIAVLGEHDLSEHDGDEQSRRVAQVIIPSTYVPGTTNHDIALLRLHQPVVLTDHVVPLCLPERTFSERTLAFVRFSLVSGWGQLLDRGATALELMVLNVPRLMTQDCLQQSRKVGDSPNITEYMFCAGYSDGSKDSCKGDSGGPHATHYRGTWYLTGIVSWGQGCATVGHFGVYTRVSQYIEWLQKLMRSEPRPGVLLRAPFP
T4 sequence (P08709 61-212 limits assumed): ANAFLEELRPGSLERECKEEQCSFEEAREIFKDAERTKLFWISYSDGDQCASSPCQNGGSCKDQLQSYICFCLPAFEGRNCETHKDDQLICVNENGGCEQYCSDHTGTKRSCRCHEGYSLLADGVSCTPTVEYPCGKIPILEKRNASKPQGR
T4 sequence (P13726 33-295 partner): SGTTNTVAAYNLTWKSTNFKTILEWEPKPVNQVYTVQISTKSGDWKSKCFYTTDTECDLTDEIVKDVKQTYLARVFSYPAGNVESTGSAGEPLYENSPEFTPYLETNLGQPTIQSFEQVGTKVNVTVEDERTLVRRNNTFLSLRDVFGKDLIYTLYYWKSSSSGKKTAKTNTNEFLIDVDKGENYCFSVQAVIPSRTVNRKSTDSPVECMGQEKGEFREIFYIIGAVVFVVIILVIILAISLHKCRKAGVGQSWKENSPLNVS
T3 sequence (P00742 235-488 limits assumed): as the sequence (P00742 235-488 limits assumed) above
T3 sequence (P00742 41-179 limits assumed): as the sequence (P00742 41-179 limits assumed) above
T3 sequence (P12259 29-737 partner limits assumed): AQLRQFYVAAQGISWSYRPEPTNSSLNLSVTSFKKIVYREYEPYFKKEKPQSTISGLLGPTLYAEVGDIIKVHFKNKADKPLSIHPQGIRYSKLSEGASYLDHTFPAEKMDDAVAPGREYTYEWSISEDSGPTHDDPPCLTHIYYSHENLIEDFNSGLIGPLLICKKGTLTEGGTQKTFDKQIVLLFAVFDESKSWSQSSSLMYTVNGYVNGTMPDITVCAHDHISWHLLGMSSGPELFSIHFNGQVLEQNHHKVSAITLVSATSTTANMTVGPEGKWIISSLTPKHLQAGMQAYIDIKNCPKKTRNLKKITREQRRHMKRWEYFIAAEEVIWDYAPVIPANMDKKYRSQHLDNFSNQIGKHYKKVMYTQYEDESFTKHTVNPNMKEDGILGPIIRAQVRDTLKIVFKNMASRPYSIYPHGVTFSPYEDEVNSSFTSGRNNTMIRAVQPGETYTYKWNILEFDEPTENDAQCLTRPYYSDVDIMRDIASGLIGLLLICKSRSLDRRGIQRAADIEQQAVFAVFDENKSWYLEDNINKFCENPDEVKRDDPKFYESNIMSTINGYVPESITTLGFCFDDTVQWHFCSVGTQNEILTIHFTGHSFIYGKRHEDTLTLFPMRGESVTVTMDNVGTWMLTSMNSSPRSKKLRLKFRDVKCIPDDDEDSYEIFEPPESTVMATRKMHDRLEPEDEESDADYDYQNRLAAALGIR
T3 sequence (P12259 1574-2224 partner limits assumed): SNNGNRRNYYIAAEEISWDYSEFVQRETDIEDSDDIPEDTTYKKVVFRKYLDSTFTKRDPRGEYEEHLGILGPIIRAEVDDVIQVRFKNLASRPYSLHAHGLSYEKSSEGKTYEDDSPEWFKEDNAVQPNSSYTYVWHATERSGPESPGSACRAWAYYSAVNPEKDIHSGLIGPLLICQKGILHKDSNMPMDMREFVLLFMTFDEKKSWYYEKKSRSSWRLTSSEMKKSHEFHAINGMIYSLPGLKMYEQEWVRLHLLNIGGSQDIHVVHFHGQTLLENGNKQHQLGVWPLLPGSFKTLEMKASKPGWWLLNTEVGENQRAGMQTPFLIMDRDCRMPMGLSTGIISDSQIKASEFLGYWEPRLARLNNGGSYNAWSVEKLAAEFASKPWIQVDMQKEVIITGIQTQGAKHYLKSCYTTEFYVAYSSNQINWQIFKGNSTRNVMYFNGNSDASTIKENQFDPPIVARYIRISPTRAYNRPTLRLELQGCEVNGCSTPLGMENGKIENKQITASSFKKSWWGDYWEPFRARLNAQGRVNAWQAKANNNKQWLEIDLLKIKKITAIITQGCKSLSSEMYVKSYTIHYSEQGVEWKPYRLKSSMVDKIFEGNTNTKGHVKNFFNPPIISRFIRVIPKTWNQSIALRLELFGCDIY

For the molecule `C[C@@H]1CCC[C@H](C)N1CCCCCn1c(=O)c(-c2cc(C(=N)N)ccc2O)nc2ccccc21` [Example 2, 3-(4-5-[(2R,6S)-2,6-dimethyltetrahydro-1(2H)-pyridinyl]pentyl-3-oxo-3,4-dihydro-2-quinoxalinyl)-4-hydroxybenzenecarboximidamide], the IC50 in assay [1] was 7020 nM; in assay [3], 2450 nM; in assay [4], 9 nM; in assay [6] it was 1.5 nM. Further, the “prolongation of PT” value in assay [2] (highest dose) came to 1.75 fold; in assay [5] (highest dose), 3.9 fold. Further, the “prolongation of aPTT” value in assay [2] (highest dose) amounted to 1.4 fold; in assay [5] (highest dose), 5 fold. For the same molecule, the “time to occlusion (TTO)” value in assay [2] (highest dose 10 μg/kg/min infusion, both arteries and veins) was approximately 240 min; in assay [5] (highest dose 480 μg/kg + 16 μg/kg/min iv, control 17 minutes), 100 min. Also, the “net thrombus weight [artery]” value in assay [2] (highest dose 10 μg/kg/min, artery, control 50 mg) is 18 mg. Besides, in assay [2] (highest dose 10 μg/kg/min, vein, control 110 mg), the “net thrombus weight [vein]” value is recorded as 15 mg. In addition, the “effect on net thrombus weight” value in assay [2] (setting [9]) and in assay [5] (setting [10]) was “reduced the net thrombus weight” throughout. Moreover, the “effect on time to occlusion” value in assay [2] (setting [9]) and in assay [5] (setting [10]) was “dose-dependently prolonged the time to occlusion” throughout. Also, the net thrombus weight in assay [5] (highest dose 480 μg/kg + 16 μg/kg/min iv, control 50 mg) turned out to be 20 mg. The “concentration which caused 2 fold prolongation of dPT” value in assay [7] was 0.05 µM. Also, in assay [7] (0.1 μM), the “fold increase in dPT” value was 3.2 fold. Also, in assay [7] (over concentrations), the “effect on dPT” value is “concentration-dependently prolonged dPT”. Also, the inhibition at 100 µM in assay [8] is 13%.

`C[C@@H]1CCC[C@H](C)N1CCCCCn1c(=O)c(-c2cccc(C(=N)N)c2)nc2ccccc21` [Example 1, 3-[3-(Amidino)phenyl]-1-{5-[(2R,6S)-2,6-dimethylhexahydro-1-pyridinyl]pentyl}-1,2-dihydro-2-quinoxalinone]: the IC50 in assay [1] was determined as 2960 nM; in assay [3], 2030 nM; in assay [4], 65 nM. For the same molecule, the inhibition at 100 µM in assay [8] was determined as 16%.

By IC50 is commonly meant the midpoint of a concentration-inhibition curve. The low end stands for greater potency, the high end for weaker potency.
